Where no end group is shown, it is not given here.
Key:
[1] = tested on: S. aureus LT440/09 (cMRSA); assay: Minimum inhibitory concentrations on agar plates (spotted serial dilutions); assay type: cell-based, Staphylococcus aureus; conditions: S. aureus LT440/09 (cMRSA) versus S. aureus SG511 (MSSA); serial dilutions in half-concentrated Müller-Hinton broth, 10 µl spotted on Müller Hinton agar lawn, overnight; lichenicidin as isopropanol wash extract
Procedure: (§1) For the comparison of the antibacterial efficacy of lichenicidin to other lantibiotics, Pep5 [52] and nisin [53] were purified as described previously, and mersacidin was obtained from Sanofi-Aventis (Frankfurt, Germany). Serial dilutions of the lantibiotics and the isopropanol wash extract were prepared in half-concentrated Müller-Hinton broth. Fresh colonies of all indicator organisms were used to prepare cell suspensions of about 5×10^6 colony forming units per ml which were employed to inoculate Müller Hinton agar plates. Ten µl of the lantibiotic solutions were spotted onto the indicator plates. The highest dilution yielding a clear inhibition zone on the lawn was detected by visual inspection after incubation overnight.

[2] = tested on: S. aureus ATCC 33592 (MRSA); assay: as above; assay type: cell-based, Staphylococcus aureus; conditions: S. aureus ATCC 33592 (MRSA) versus S. aureus SG511 (MSSA); serial dilutions in half-concentrated Müller-Hinton broth, 10 µl spotted on Müller Hinton agar lawn, overnight; lichenicidin as isopropanol wash extract
Procedure: as §1

Substance	minimum inhibitory concentration on agar plates, fold higher than against S. aureus SG511 [1] [fold]	minimum inhibitory concentration on agar plates, fold higher than against S. aureus SG511 [2] [fold]
mersacidin: lantibiotic obtained from Sanofi-Aventis (CTFTLPGGGGVCTLTSECIC; also: lantibiotic: thioether bridges, places not given here; UniProt P43683 49-68, looked up)	4.7±1.6	4.8±1.6
nisin	2.67±1.03	1.83±0.41
